Experimental data as given in patent US20210346279A1, “COMPOSITIONS COMPRISING TAPINAROF FOR THE TREATMENT OF PRURITIS” (Sol-Gel Technologies Ltd., priority 2020, published 2021).

System: C57/b16 mice
Assay: acetone-ether-water (AEW) induced pruritus in a mouse model, spontaneous scratching recorded for 60 min
Type: in vivo
Method: The objective of this study was to examine the efficacy of topical formulations of Tapinarof in the strength of 0.5%, 1% and 2% as a treatment in acetone-ether-water (AEW) induced pruritus in a mouse model.
The model of inducing itching sensation was done by treating C57/b16 mice with AEW as was conducted in other studies in the past.
The mice were shaved 24 h prior to study to expose the skin. For 5 days, twice a day (at least 3-4 hours apart), mice were applied acetone and ether (mixed at 1:1 ratio) on the right cheek for 30 seconds, and immediately afterwards applied on cheek water for 30 seconds.
Day 1-3: AEW was treated twice (at least 3-4 hours apart), AE 30s, Water 30s.
Day 4-5: AEW was treated twice (at least 3-4 hours apart), AE 30s, Water 30s, topical administration of vehicle, tapinarof 0.5%, tapinarof 1%, tapinarof 2% (−20 h before evaluation) and randomization.
Day 5: AEW was treated once, topical administration of vehicle, tapinarof 0.5%, tapinarof 1%, and tapinarof 2% (−2 h before evaluation), positive control dosing (−30 min), video record (evaluation), animal weighing, sacrificing, plasma collection and skin sample collection.
Immediately after AEW application on day 5, the mice were put into acrylic chambers and behavior was recorded for 60 min using a video camera under unmanned conditions to assess spontaneous scratching. Videos were manually scored for time spent spontaneously scratching the affected cheek. Scratching is defined as an episode in which the mouse lifted its paw and scratched continuously for any length of time until the paw returned to the floor. Only scratches of the affected cheek with their hind paws were counted. Other scratching behaviors were disregarded. The number of scratches was summarized for each animal and the average number per group was calculated. In addition, the scratching time (seconds) was also evaluated, and the average of scratching time was calculated. Data are expressed as the mean±S.E.M. statistically significant differences between two groups were evaluated using paired or non-paired Student's t-test as required.

Structure (SMILES): CC(C)c1c(O)cc(/C=C/c2ccccc2)cc1O [tapinarof]
- effect on scratching compared with the positive control (topical formulation 0.5% w/w): comparable to the positive control
- effect over the vehicle (scratching sessions and periods) (topical formulation 0.5% w/w, applied -20 h and -2 h before evaluation): ~40%
- effect on scratching sessions and periods (topical formulation 1% w/w (percent increased twice versus 0.5%)): did not reduce the scratching sessions and periods
- effect on scratching sessions and periods (topical formulation 2% w/w (percent increased four times versus 0.5%)): did not reduce the scratching sessions and periods
